PubChem BioAssay AID1963439 (Molecular Pharmacology Branch, DTP, NCI, 2024)
Where “and” joins values, the source holds several entries; their conditions need not be identical. Equal values may be shown once.

System: NCI-H196 complex spheroids with HUVEC/MSC, growth % T/C
Assay: Anticancer human tumor NCI-H196 cell line growth inhibition [Asc];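 also: spheroids exposed to compound for 7 days before measurement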;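 as to viability, T/C: 100% = DMSO vehicle control wells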
Conditions: for viability, T/C: stronger effect = lower value
Outline: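 Complex solid-tumor spheroids incorporating human endothelial and mesenchymal stem cells received single agents or combinations over half-log dilution ranges anchored to clinical Cmax.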

[1] = curve of first compound, second compound 0.01 µM
[2] = curve of first compound, second compound 0.0316 µM
[3] = curve of first compound, second compound 0.1 µM
[4] = curve of first compound, second compound 0.316 µM
[5] = curve of first compound, second compound 1 µM

SMILES: CCN1C(C(=O)NC23CCC(C(=O)O)(CC2)CC3)C(c2cccc(Cl)c2F)C2(C(=O)Nc3cc(Cl)ccc32)C12CCCCC2 (stereo unspecified) + CNC(C)C(=O)NC1CN(S(=O)(=O)c2cccc(S(=O)(=O)N3CCC4CCC(C(=O)NC(c5ccccc5)c5ccccc5)N4C(=O)C(NC(=O)C(C)NC)C3)c2)CCC2CCC(C(=O)NC(c3ccccc3)c3ccccc3)N2C1=O
- IC50 [1]: < 9.49 nM
- IC50 [2]: < 9.49 nM
- IC50 [3]: < 9.49 nM
- IC50 [4]: < 9.49 nM
- IC50 [5]: < 9.49 nM
- viability, T/C (second compound 0.01 µM, first compound 0.00949 µM): 6.77%
- viability, T/C (second compound 0.01 µM, first compound 0.03 µM): 8.8%
- viability, T/C (second compound 0.01 µM, first compound 0.0949 µM): 6.77%
- viability, T/C (second compound 0.01 µM, first compound 0.3 µM): 4.95%
- viability, T/C (second compound 0.01 µM, first compound 0.949 µM): 4.31%
- viability, T/C (second compound 0.01 µM, first compound 3 µM): 2.99%
- viability, T/C (second compound 0.0316 µM, first compound 0.00949 µM): 4.48%
- viability, T/C (second compound 0.0316 µM, first compound 0.03 µM): 6.6%
- viability, T/C (second compound 0.0316 µM, first compound 0.0949 µM): 5.08%
- viability, T/C (second compound 0.0316 µM, first compound 0.3 µM): 5.41%
- viability, T/C (second compound 0.0316 µM, first compound 0.949 µM): 2.77%
- viability, T/C (second compound 0.0316 µM, first compound 3 µM): 1.77%
- viability, T/C (second compound 0.1 µM, first compound 0.00949 µM): 3.71%
- viability, T/C (second compound 0.1 µM, first compound 0.03 µM): 4.01%
- viability, T/C (second compound 0.1 µM, first compound 0.0949 µM): 3.17%
- viability, T/C (second compound 0.1 µM, first compound 0.3 µM): 3.11%
- viability, T/C (second compound 0.1 µM, first compound 0.949 µM): 1.37%
- viability, T/C (second compound 0.1 µM, first compound 3 µM): 2.04%
- viability, T/C (second compound 0.316 µM, first compound 0.00949 µM): 2.48%
- viability, T/C (second compound 0.316 µM, first compound 0.03 µM): 4.45%
- viability, T/C (second compound 0.316 µM, first compound 0.0949 µM): 3.05%
- viability, T/C (second compound 0.316 µM, first compound 0.3 µM): 1.97%
- viability, T/C (second compound 0.316 µM, first compound 0.949 µM): 0.96%
- viability, T/C (second compound 0.316 µM, first compound 3 µM): 1.45%
- viability, T/C (second compound 1 µM, first compound 0.00949 µM): 2.97%
- viability, T/C (second compound 1 µM, first compound 0.03 µM): 4.34%
- viability, T/C (second compound 1 µM, first compound 0.0949 µM): 2.12%
- viability, T/C (second compound 1 µM, first compound 0.3 µM): 1.73%
- viability, T/C (second compound 1 µM, first compound 0.949 µM): 1.39%
- viability, T/C (second compound 1 µM, first compound 3 µM): 1.39%

SMILES: CCN1C(C(=O)NC23CCC(C(=O)O)(CC2)CC3)C(c2cccc(Cl)c2F)C2(C(=O)Nc3cc(Cl)ccc32)C12CCCCC2 (stereo unspecified)
- viability, T/C (compound 0.00949 µM): 102% and 98.3%
- viability, T/C (compound 0.03 µM): 102% [middle of 15 runs]
- viability, T/C (compound 0.0949 µM): 106% [middle of 15 runs]
- viability, T/C (compound 0.3 µM): 106% [middle of 15 runs]
- viability, T/C (compound 0.949 µM): 113% [middle of 15 runs]
- IC50 (compound alone, run of 09/27/2022): > 3000 nM
- IC50 (curve of compound): > 3000 nM

SMILES: O=C(c1ccc(F)c(F)c1Nc1ccc(I)cc1F)N1CC(O)([C@@H]2CCCCN2)C1
- viability, T/C (compound 0.00316 µM): 94.1% and 97.7% and 117%
- viability, T/C (compound 0.01 µM): 116% and 99.4% and 109%
- viability, T/C (compound 0.0316 µM): 98.1% and 97.8% and 122%
- viability, T/C (compound 0.1 µM): 116% and 111% and 136%
- viability, T/C (compound 0.316 µM): 132% and 119% and 145%
- viability, T/C (compound 1 µM): 126% and 119% and 145%
- IC50 (curve of compound): > 1000 nM

SMILES: CCN1CCN(Cc2ccc(Nc3ncc(F)c(-c4cc(F)c5nc(C)n(C(C)C)c5c4)n3)nc2)CC1 + CNC(C)C(=O)NC1CN(S(=O)(=O)c2cccc(S(=O)(=O)N3CCC4CCC(C(=O)NC(c5ccccc5)c5ccccc5)N4C(=O)C(NC(=O)C(C)NC)C3)c2)CCC2CCC(C(=O)NC(c3ccccc3)c3ccccc3)N2C1=O
- IC50 [1]: < 3.16 nM
- IC50 [2]: < 3.16 nM
- IC50 [3]: < 3.16 nM
- IC50 [4]: < 3.16 nM
- IC50 [5]: < 3.16 nM
- viability, T/C (second compound 0.01 µM, first compound 0.00316 µM): 5.3%
- viability, T/C (second compound 0.01 µM, first compound 0.01 µM): 6.9%
- viability, T/C (second compound 0.01 µM, first compound 0.0316 µM): 9.46%
- viability, T/C (second compound 0.01 µM, first compound 0.1 µM): 7.15%
- viability, T/C (second compound 0.01 µM, first compound 0.316 µM): 6.5%
- viability, T/C (second compound 0.01 µM, first compound 1 µM): 5.95%
- viability, T/C (second compound 0.0316 µM, first compound 0.00316 µM): 4.57%
- viability, T/C (second compound 0.0316 µM, first compound 0.01 µM): 4.1%
- viability, T/C (second compound 0.0316 µM, first compound 0.0316 µM): 3.84%
- viability, T/C (second compound 0.0316 µM, first compound 0.1 µM): 4.62%
- viability, T/C (second compound 0.0316 µM, first compound 0.316 µM): 6.92%
- viability, T/C (second compound 0.0316 µM, first compound 1 µM): 5.07%
- viability, T/C (second compound 0.1 µM, first compound 0.00316 µM): 3.7%
- viability, T/C (second compound 0.1 µM, first compound 0.01 µM): 4.39%
- viability, T/C (second compound 0.1 µM, first compound 0.0316 µM): 3.41%
- viability, T/C (second compound 0.1 µM, first compound 0.1 µM): 3.01%
- viability, T/C (second compound 0.1 µM, first compound 0.316 µM): 4.87%
- viability, T/C (second compound 0.1 µM, first compound 1 µM): 3.86%
- viability, T/C (second compound 0.316 µM, first compound 0.00316 µM): 2.69%
- viability, T/C (second compound 0.316 µM, first compound 0.01 µM): 4.01%
- viability, T/C (second compound 0.316 µM, first compound 0.0316 µM): 3.79%
- viability, T/C (second compound 0.316 µM, first compound 0.1 µM): 4.21%
- viability, T/C (second compound 0.316 µM, first compound 0.316 µM): 3.33%
- viability, T/C (second compound 0.316 µM, first compound 1 µM): 3.67%
- viability, T/C (second compound 1 µM, first compound 0.00316 µM): 2.84%
- viability, T/C (second compound 1 µM, first compound 0.01 µM): 3.75%
- viability, T/C (second compound 1 µM, first compound 0.0316 µM): 3.08%
- viability, T/C (second compound 1 µM, first compound 0.1 µM): 3.26%
- viability, T/C (second compound 1 µM, first compound 0.316 µM): 3.93%
- viability, T/C (second compound 1 µM, first compound 1 µM): 3.85%

SMILES: COc1c(OCCCN2CCOCC2)ccc2c3n(c(=NC(=O)c4cnc(N)nc4)nc12)CCN3
- viability, T/C (compound 0.00316 µM): 96% and 93% and 109%
- viability, T/C (compound 0.01 µM): 91.4% and 90.6% and 101%
- viability, T/C (compound 0.0316 µM): 94.1% and 100% and 108%
- viability, T/C (compound 0.1 µM): 77.4% and 86.4% and 90.1%
- viability, T/C (compound 0.316 µM): 67.9% and 69.6% and 69.5%
- viability, T/C (compound 1 µM): 56.8% and 50.8% and 51%
- IC50 (curve of compound): > 1000 nM

SMILES: O=C(c1cc(Cc2n[nH]c(=O)c3ccccc23)ccc1F)N1CCN(C(=O)C2CC2)CC1 + CCN1C(C(=O)NC23CCC(C(=O)O)(CC2)CC3)C(c2cccc(Cl)c2F)C2(C(=O)Nc3cc(Cl)ccc32)C12CCCCC2
- IC50 (curve of first compound, second compound 0.03 µM): > 10000 nM
- IC50 (curve of first compound, second compound 0.0949 µM): > 10000 nM
- IC50 (curve of first compound, second compound 0.3 µM): > 10000 nM
- IC50 (curve of first compound, second compound 0.949 µM): > 10000 nM
- IC50 (curve of first compound, second compound 3 µM): > 10000 nM
- viability, T/C (second compound 0.03 µM, first compound 0.0316 µM): 102%
- viability, T/C (second compound 0.03 µM, first compound 0.1 µM): 116%
- viability, T/C (second compound 0.03 µM, first compound 0.316 µM): 95.9%
- viability, T/C (second compound 0.03 µM, first compound 1 µM): 100%
- viability, T/C (second compound 0.03 µM, first compound 3.16 µM): 104%
- viability, T/C (second compound 0.03 µM, first compound 10 µM): 97.9%
- viability, T/C (second compound 0.0949 µM, first compound 0.0316 µM): 108%
- viability, T/C (second compound 0.0949 µM, first compound 0.1 µM): 105%
- viability, T/C (second compound 0.0949 µM, first compound 0.316 µM): 110%
- viability, T/C (second compound 0.0949 µM, first compound 1 µM): 100%
- viability, T/C (second compound 0.0949 µM, first compound 3.16 µM): 102%
- viability, T/C (second compound 0.0949 µM, first compound 10 µM): 104%
- viability, T/C (second compound 0.3 µM, first compound 0.0316 µM): 106%
- viability, T/C (second compound 0.3 µM, first compound 0.1 µM): 107%
- viability, T/C (second compound 0.3 µM, first compound 0.316 µM): 123%
- viability, T/C (second compound 0.3 µM, first compound 1 µM): 116%
- viability, T/C (second compound 0.3 µM, first compound 3.16 µM): 107%
- viability, T/C (second compound 0.3 µM, first compound 10 µM): 100%
- viability, T/C (second compound 0.949 µM, first compound 0.0316 µM): 120%
- viability, T/C (second compound 0.949 µM, first compound 0.1 µM): 124%
- viability, T/C (second compound 0.949 µM, first compound 0.316 µM): 121%
- viability, T/C (second compound 0.949 µM, first compound 1 µM): 121%
- viability, T/C (second compound 0.949 µM, first compound 3.16 µM): 121%
- viability, T/C (second compound 0.949 µM, first compound 10 µM): 105%
- viability, T/C (second compound 3 µM, first compound 0.0316 µM): 116%
- viability, T/C (second compound 3 µM, first compound 0.1 µM): 120%
- viability, T/C (second compound 3 µM, first compound 0.316 µM): 108%
- viability, T/C (second compound 3 µM, first compound 1 µM): 110%
- viability, T/C (second compound 3 µM, first compound 3.16 µM): 128%
- viability, T/C (second compound 3 µM, first compound 10 µM): 110%
